# Measured values taken from article PMC2008936 (British Journal of Cancer, 1973).
# Columns and labels:
# [1] = microsomes
# [2] = system: S. typhimurium TA 1530; assay type: cell-based, Salmonella typhimurium
# [3] = system: E. coli AB 2480 (uvrA recA)
# [4] = in vitro; settings: male, Wistar, Escherichia coli (indicator bacteria); rat (liver fraction)
# [5] = system: bacterial transforming DNA; settings: cited from earlier work
# [6] = system: S. typhimurium his C207; assay type: cell-based, Salmonella typhimurium
# [7] = system: Neurospora; settings: cited from earlier work
# [8] = system: rat liver; settings: in vivo; cited from earlier work
# [9] = system: Drosophila; settings: in vivo; cited from earlier work
# [10] = system: S. typhimurium his G46; assay type: cell-based, Salmonella typhimurium
compound,measurement,setting,value
"OCC(S)CS (centres unmarked) [2,3-Dimercaptopropanol]",Effect on amount of aflatoxin B1 metabolized,[1],no alteration in the amount of aflatoxin B1 metabolized
same,Effect of added agent on bacterial killing by the aflatoxin B1 metabolite,[2],some protective action
same,Inhibition of killing (fold),[2],three-fold
same,Survivors in the presence of dimercaptopropanol,[2],42%
"Cc1ccc2cc3c(ccc4ccccc43)c3c2c1CC3 [3-methylcholanthrene, reference compound]",Effect of pretreatment of rats on amount of lethal aflatoxin B1 metabolite formed by liver,[3],did not alter the amount
COc1c2c(c3oc4cccc(O)c4c(=O)c3c1OC)C1C=COC1O2 (centres unmarked) [5-methoxysterigmatocystin],Formation of toxic metabolites on incubation with mixed function oxidases,[3],Toxic metabolites were also formed
COc1cccc2oc3c4c(cc(OC)c3c(=O)c12)OC1OC=CC41 (centres unmarked) [O-methylsterigmatocystin],Formation of toxic metabolites on incubation with mixed function oxidases,[3],Toxic metabolites were also formed
"COc1cc2c(c3oc(=O)cc(CCO)c13)C1C=COC1O2 (centres unmarked) [Parasiticol, parasiticol]",Formation of toxic metabolites on incubation with mixed function oxidases,[3],Toxic metabolites were also formed
"CCC1(c2ccccc2)C(=O)NC(=O)NC1=O [Phenobarbitone, phenobarbitone, reference compound]",Effect of pretreatment of rats on amount of lethal aflatoxin B1 metabolite formed by liver,[3],an increase was observed
"O=C1c2cc(O)cc(O)c2C(=O)c2c1cc1c(c2O)[C@@H]2C=CO[C@@H]2O1 [Versicolorin A, versicolorin A]",Formation of toxic metabolites on incubation with mixed function oxidases,[3],Toxic metabolites were also formed
"c1ccc2c(c1)cc1ccc3cccc4ccc2c1c34 [benzo(a)pyrene, reference compound]",Effect of pretreatment of rats on amount of lethal aflatoxin B1 metabolite formed by liver,[3],did not alter the amount
C1CCC2OC2C1 (centres unmarked) [cyclohexene oxide],Effect of added agent on bacterial killing by the aflatoxin B1 metabolite,[2],did not alter bacterial killing
N[C@@H](CS)C(=O)O [cysteine],Effect of added agent on bacterial killing by the aflatoxin B1 metabolite,[2],did not alter bacterial killing
N[C@@H](CCC(=O)N[C@@H](CS)C(=O)NCC(=O)O)C(=O)O [glutathione],Effect of added agent on bacterial killing by the aflatoxin B1 metabolite,[2],did not alter bacterial killing
CSCC[C@H](N)C(=O)O [methionine],Effect of added agent on bacterial killing by the aflatoxin B1 metabolite,[2],did not alter bacterial killing
O=S([O-])([O-])=S.[Na+].[Na+] [sodium thiosulphate],Effect of added agent on bacterial killing by the aflatoxin B1 metabolite,[2],did not alter bacterial killing
COc1cc2c(c3oc4cccc(O)c4c(=O)c13)[C@@H]1C=CO[C@@H]1O2 [sterigmatocystin],Survival [no. viable bacteria (treated)/no. viable bacteria (control) x 100],[3],0- 3
same,viability,[4],0.5%
aflatoxin B1,Mutagenicity,[5],mutagenic
same,Effect of incubation at 30 C on number of bacteria killed,[2],a decrease in the number of bacteria killed
same,Mutation of the strain by the aflatoxin B1 metabolite,[6],not mutated by it
same,Sensitivity of the strain to the toxic effects of the metabolite,[6],resistant to the toxic effects
same,Killing activity with heat denatured liver preparation,[3],abolished all killing activity
same,Mutagenicity,[7],mutagenic
same,Liver carcinogenicity,[8],most potent liver carcinogen known for the rat
same,Mutagenicity,[9],mutagenic
same,Mutation of the strain by the aflatoxin B1 metabolite,[10],not mutated by it
same,Sensitivity of the strain to the toxic effects of the metabolite,[10],resistant to the toxic effects
sodium sulphide,Effect of added agent on bacterial killing by the aflatoxin B1 metabolite,[2],did not alter bacterial killing
